Where two headings read alike, the source gives them in different places.
Tests used:
[1] = biological target: GST-tagged K-Ras mutant / His-tagged hSOS1 (Homo sapiens, UniProt P01116); assay: HTRF assay, K-Ras mutant / SOS1 interaction; assay type: binding; conditions: read-out: IC50 against mutant Kras
In short: (§1)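 HTRF read-out of GST-tagged K-Ras (mutant or wildtype) binding His-hSOS1, via anti-GST-Eu donor and anti-6His-XL665 acceptor; buffer ~5 mM HEPES pH 7.4, ~150 mM NaCl, ~1 mM DTT, 0.05% BSA, 0.0025% Igepal. Read after ≥~10 min; duplicates, 10 μM to 0.01 μM; IC50 from 665/620 nm ratio.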

wildtype Kras / hSOS1 = biological target: T1, wildtype Kras / hSOS1 (Homo sapiens, UniProt P01116); assay: HTRF assay, wildtype Kras / SOS1 interaction; assay type: binding; conditions: read-out: IC50 against wildtype Kras
T1 construct: made in house; host or cells: E. coli BL21 (DE3)
T1 sequence (P01116 1-188 isoform P01116-2): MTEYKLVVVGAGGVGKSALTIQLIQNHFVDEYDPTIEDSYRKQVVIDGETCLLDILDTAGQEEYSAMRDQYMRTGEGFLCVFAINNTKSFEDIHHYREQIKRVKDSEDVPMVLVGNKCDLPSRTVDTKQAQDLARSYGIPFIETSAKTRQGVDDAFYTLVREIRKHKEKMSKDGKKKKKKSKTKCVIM
In short: as §1

[2] = compound nos. 102-196, general methodology of example 5
[3] = compound nos. 201-213, general methodology of example 5

GST-tagged K-Ras mutant / His-tagged hSOS1, sequence (P01116 whole entry G12D, form open): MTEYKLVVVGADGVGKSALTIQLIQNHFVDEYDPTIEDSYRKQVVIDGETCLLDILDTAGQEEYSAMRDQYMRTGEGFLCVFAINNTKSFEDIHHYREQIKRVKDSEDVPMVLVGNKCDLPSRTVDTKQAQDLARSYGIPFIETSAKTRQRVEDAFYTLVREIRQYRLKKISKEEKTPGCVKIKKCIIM

IC50 [1, 2] [nM] | IC50 (wildtype Kras / hSOS1; [2]) [nM] | IC50 [1, 3] [nM] | IC50 (wildtype Kras / hSOS1; [3]) [nM] | SMILES
< 500 | < 500 | – | – | CN1CCC[C@H]1COc1nc(N2CCCCC(F)C2)c2cc(Cl)c(-c3cccc4sc(N)nc34)c(F)c2n1 (stereo partly drawn) [Compound 181, 4-(6-chloro-8-fluoro-4-(3-fluoroazepan-1-yl)-2-(((S)-1-methylpyrrolidin-2-yl)-methoxy)quinazolin-7-yl)-benzo[d]thiazol-2-amine]
> 500 | > 500 | – | – | CN1CCC[C@H]1COc1nc(N2CCCCC(F)(F)C2)c2cc(Cl)c(-c3cccn4nc(N)nc34)c(F)c2n1 [Compound 182, (S)-8-(6-chloro-4-(3,3-difluoroazepan-1-yl)-8-fluoro-2-((1-methylpyrrol-idin-2-yl)methoxy)quin-azolin-7-yl)[1,2,4]triazolo-[1,5-a]pyridin-2-amine]
> 500 | > 500 | – | – | CN1CCC[C@H]1COc1nc(N2CCNCC(F)(F)C2)c2cc(Cl)c(-c3cccc4ccc(N)nc34)c(F)c2n1 [Compound 183, 8-(6-chloro-4-(6,6-difluoro-1,4-diazepan-1-yl)-8-fluoro-2-(((S)-1-methylpyrrolidin-2-yl)methoxy)quinazolin-7-yl)quinolin-2-amine]
> 500 | > 500 | – | – | CN1CCC[C@H]1COc1nc(N2CCNCC(F)(F)C2)c2cc(Cl)c(-c3cccc4nc(N)sc34)c(F)c2n1 [Compound 184, 7-(6-chloro-4-(6,6-difluoro-1,4-diazepan-1-yl)-8-fluoro-2-(((S)-1-methylpyrrolidin-2-yl)methoxy)quinazolin-7-yl)benzo[d]thiazol-2-amine]
> 500 | > 500 | – | – | CN1CCC[C@H]1COc1nc(N2CCNCC(F)(F)C2)c2cc(Cl)c(-c3cccc4oc(C#N)nc34)c(F)c2n1 [Compound 185, 4-(6-chloro-4-(6,6-difluoro-1,4-diazepan-1-yl)-8-fluoro-2-(((S)-1-methylpyrrolidin-2-yl)methoxy)quinazolin-7-yl)benzo[d]oxazole-2-carbonitrile]
> 500 | > 500 | – | – | CN1CCC[C@H]1COc1nc(N2CCNCC(F)(F)C2)c2cc(Cl)c(-c3cccc4nc(N)n(C)c34)c(F)c2n1 [Compound 186, 7-(6-chloro-4-(6,6-difluoro-1,4-diazepan-1-yl)-8-fluoro-2-(((S)-1-methylpyrrolidin-2-yl)methoxy)quinazolin-7-yl)-1-methyl-1H-benzo[d]-imidazol-2-amine]
< 500 | < 500 | – | – | N#CCC1CNCCN(c2nc(OCC34CCCN3CCC4)nc3c(F)c(-c4ccc(F)c5sc(N)nc45)c(Cl)cc23)C1 (stereo not shown) [Compound 187, 2-(1-(7-(2-amino-7-fluoro-benzo[d]thiazol-4-yl)-6-chloro-8-fluoro-2-((tetra-hydro-1H-pyrrolizin-7a(5H)-yl)methoxy)quin-azolin-4-yl)-1,4-diazepan-6-yl)acetonitrile]
> 500 | > 500 | – | – | Cc1cc(N)nc(-c2c(Cl)cc3c(N4CCNCC(F)(F)C4)nc(OC[C@@H]4CCCN4C)nc3c2F)c1 [Compound 189, (S)-6-(6-chloro-4-(6,6-difluoro-1,4-diazepan-1-yl)-8-fluoro-2-((1-methyl-pyrrolidin-2-yl)methoxy)-quinazolin-7-yl)-4-methyl-pyridin-2-amine]
< 500 | < 500 | – | – | Nc1nc2c(-c3c(Cl)cc4c(N5CCCCC(F)C5)nc(OC[C@@]56CCCN5C[C@H](F)C6)nc4c3F)ccc(F)c2s1 (stereo partly drawn) [Compound 190, 4-(6-chloro-8-fluoro-4-(3-fluoroazepan-1-yl)-2-(((2R,7aS)-2-fluorotetra-hydro-1H-pyrrolizin-7a(5H)-yl)methoxy)quin-azolin-7-yl)-7-fluorobenzo-[d]thiazol-2-amine]
> 500 | > 500 | – | – | Cc1ccnc(C(C)C)c1-n1c(=O)nc(N2CCNCC(F)(F)C2)c2cc(F)c(-c3c(O)cccc3F)nc21 [Compound 195, 4-(6,6-difluoro-1,4-diazepan-1-yl)-6-fluoro-7-(2-fluoro-6-hydroxyphenyl)-1-(2-isopropyl-4-methylpyridin-3-yl)pyrido[2,3-d]pyrimidin-2(1H)-one]
> 500 | > 500 | – | – | Cc1ccnc(C(C)C)c1-n1c(=O)nc(N2CCNCC(F)(F)C2)c2cc(F)c(-c3cc(O)cc4ccccc34)nc21 [Compound 196, 4-(6,6-difluoro-1,4-diazepan-1-yl)-6-fluoro-7-(3-hydroxynaphthalen-1-yl)-1-(2-isopropyl-4-methyl-pyridin-3-yl)pyrido[2,3-d]-pyrimidin-2(1H)-one]
– | – | < 1500 | < 1500 | Nc1nc2c(-c3c(Cl)cc4c(N5CC6CNC(C6)C5)nc(OC[C@@]56CCCN5C[C@H](F)C6)nc4c3F)ccc(F)c2s1 (stereo partly drawn) [Compound 201, 4-(4-(3,6-diazabicyclo[3.2.1]octan-3-yl)-6-chloro-8-fluoro-2-(((2R,7aS)-2-fluorotetrahydro-1H-pyrrolizin-7a(5H)-yl)methoxy)quinazolin-7-yl)-7-fluorobenzo[d]thiazol-2-amine]
– | – | < 1500 | < 1500 | Oc1cc(-c2c(Cl)cc3c(N4C[C@H]5CC[C@@H](C4)N5)nc(OC[C@@]45CCCN4C[C@H](F)C5)nc3c2F)c2ccccc2c1 [Compound 202, 4-(4-((1R,5S)-3,8-diazabicyclo[3.2.1]octan-3-yl)-6-chloro-8-fluoro-2-(((2R,7aS)-2-fluorotetrahydro-1H-pyrrolizin-7a(5H)-yl)methoxy)quinazolin-7-yl)naphthalen-2-ol]
– | – | < 1500 | < 1500 | Nc1nc2c(-c3c(Cl)cc4c(N5CC6CCC(C5)O6)nc(OC[C@@]56CCCN5C[C@H](F)C6)nc4c3F)ccc(F)c2s1 [Compound 203, 4-(4-(8-oxa-3-azabicyclo[3.2.1]octan-3-yl)-6-chloro-8-fluoro-2-(((2R,7aS)-2-fluorohexahydro-1H-pyrrolizin-7a-yl)methoxy)quinazolin-7-yl)-7-fluorobenzo[d]thiazol-2-amine]
– | – | < 1500 | < 1500 | Nc1nc2c(-c3c(Cl)cc4c(N5CC6CCC(C5)N6)nc(OC[C@@]56CCCN5C[C@H](F)C6)nc4c3F)cccc2o1 [Compound 204, 4-(4-((1R,5S)-3,8-diaza-bicyclo[3.2.1]octan-3-yl)-6-chloro-8-fluoro-2-(((2R,7aS)-2-fluorotetra-hydro-1H-pyrrolizin-7a(5H)-yl)methoxy)quin-azolin-7-yl)benzo[d]-oxazol-2-amine]
– | – | < 1500 | < 1500 | CN1[C@@H]2CC[C@H]1CN(c1nc(OC[C@@]34CCCN3C[C@H](F)C4)nc3c(F)c(-c4ccc(F)c5sc(N)nc45)c(Cl)cc13)C2 [Compound 205, 4-(6-chloro-8-fluoro-2-(((2R,7aS)-2-fluorotetra-hydro-1H-pyrrolizin-7a(5H)-yl)methoxy)-4-((1R,5S)-8-methyl-3,8-diazabicyclo[3.2.1]octan-3-yl)quinazolin-7-yl)-7-fluorobenzo[d]thiazol-2-amine]
– | – | < 1500 | < 1500 | Nc1nc2c(-c3c(Cl)cc4c(N5C[C@H]6CC[C@@H](C5)N6)nc(OC[C@@]56CCCN5C[C@H](F)C6)nc4c3F)ccc(F)c2s1 [Compound 206, 4-(4-((1R,5S)-3,8-diaza-bicyclo[3.2.1]octan-3-yl)-6-chloro-8-fluoro-2-(((2R,7aS)-2-fluorotetra-hydro-1H-pyrrolizin-7a(5H)-yl)methoxy)quinazolin-7-yl)-7-fluorobenzo[d]thiazol-2-amine]
– | – | < 1500 | < 1500 | Nc1nc2c(-c3ccc4c(N5CC6CCC(C5)N6)nc(OC[C@@]56CCCN5C[C@H](F)C6)nc4c3F)ccc(F)c2s1 [Compound 207, 4-(4-((1R,5S)-3,8-diaza-bicyclo[3.2.1]octan-3-yl)-8-fluoro-2-(((2R,7aS)-2-fluoro-tetrahydro-1H-pyrrolizin-7a(5H)-yl)methoxy)quin-azolin-7-yl)-7-fluorobenzo-[d]thiazol-2-amine]
– | – | < 1500 | < 1500 | Nc1nc2c(-c3c(Cl)cc4c(N5C[C@H]6CC[C@@H](C5)N6)nc(OCCCN5CCCC5)nc4c3F)ccc(F)c2s1 [Compound 208, 4-(4-((1R,5S)-3,8-diaza-bicyclo[3.2.1]octan-3-yl)-6-chloro-8-fluoro-2-(3-(pyrrolidin-1-yl)propoxy)-quinazolin-7-yl)-7-fluoro-benzo[d]thiazol-2-amine]
– | – | < 1500 | < 1500 | Oc1cc(-c2ccc3c(N4CC5CCC(C4)N5)nc(OC[C@@]45CCCN4C[C@H](F)C5)nc3c2F)c2ccccc2c1 [Compound 209, 4-(4-((1R,5S)-3,8-diaza-bicyclo[3.2.1]octan-3-yl)-8-fluoro-2-(((2R,7aS)-2-fluoro-tetrahydro-1H-pyrrolizin-7a(5H)-yl)methoxy)quin-azolin-7-yl)naphthalen-2-ol]
– | – | < 1500 | < 1500 | CN(C)CC1(COc2nc(N3C[C@H]4CC[C@@H](C3)N4)c3cc(Cl)c(-c4ccc(F)c5sc(N)nc45)c(F)c3n2)CC1 [Compound 210]
– | – | < 1500 | < 1500 | Nc1nc2c(-c3c(Cl)cc4c(N5C[C@H]6CC[C@@H](C5)N6)nc(OCC5(CN6CCCC6)CC5)nc4c3F)ccc(F)c2s1 [Compound 211, 4-(4-((1R,5S)-3,8-diaza-bicyclo[3.2.1]octan-3-yl)-6-chloro-8-fluoro-2-((1-(pyrrolidin-1-ylmethyl)-cyclopropyl)methoxy)quin-azolin-7-yl)-7-fluorobenzo-[d]thiazol-2-amine]
– | – | < 1500 | < 1500 | Nc1nc2c(-c3c(Cl)cc4c(N5C[C@H]6CC[C@@H](C5)N6)nc(OCC5(CN6CCCC6)CC5)nc4c3F)cccc2o1 [Compound 212, 4-(4-((1R,5S)-3,8-diaza-bicyclo[3.2.1]octan-3-yl)-6-chloro-8-fluoro-2-((1-(pyrrolidin-1-ylmethyl)-cyclopropyl)methoxy)quin-azolin-7-yl)benzo[d]oxazol-2-amine]

Source: patent US20240254129A1, “HETEROCYCLIC COMPOUNDS AND USES THEREOF” (Kumquat Biosciences Inc., priority 2021, published 2024)
